Experimental data as given in PubChem BioAssay (NCI).
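Compound exposure: 48 hours, 5 concentrations, 96-well plates. GI50 = concentration required for 50% inhibition of growth. Definition used: TGI = concentration required for complete inhibition of growth.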

Tests used:
Test in all cases: growth of human tumour cells (NCI), 48 h
NCI-H460 lung = tested on: NCI-H460 lung
MCF7 breast = tested on: MCF7 breast
SR leukemia = tested on: SR leukemia
OVCAR-3 ovarian = tested on: OVCAR-3 ovarian
LOX IMVI melanoma = tested on: LOX IMVI melanoma
A498 renal = tested on: A498 renal
786-0 renal = tested on: 786-0 renal
IGROV1 ovarian = tested on: IGROV1 ovarian
DU-145 prostate = tested on: DU-145 prostate
ACHN renal = tested on: ACHN renal
A549 NSCLC = tested on: A549 NSCLC
M14 melanoma = tested on: M14 melanoma
NCI-H522 lung = tested on: NCI-H522 lung
SK-MEL-5 melanoma = tested on: SK-MEL-5 melanoma
CCRF-CEM leukemia = tested on: CCRF-CEM leukemia
SF-268 CNS = tested on: SF-268 CNS
KM12 colon = tested on: KM12 colon
UO-31 renal = tested on: UO-31 renal
BT-549 breast = tested on: BT-549 breast
CAKI-1 renal = tested on: CAKI-1 renal
OVCAR-4 ovarian = tested on: OVCAR-4 ovarian
HCT-15 colon = tested on: HCT-15 colon
EKVX NSCLC = tested on: EKVX NSCLC
HOP-62 NSCLC = tested on: HOP-62 NSCLC
SK-MEL-2 melanoma = tested on: SK-MEL-2 melanoma
TK-10 renal = tested on: TK-10 renal
K-562 leukemia = tested on: K-562 leukemia
SN12C renal = tested on: SN12C renal
MALME-3M melanoma = tested on: MALME-3M melanoma
MOLT-4 leukemia = tested on: MOLT-4 leukemia
HCC-2998 colon = tested on: HCC-2998 colon
U251 CNS = tested on: U251 CNS
RPMI-8226 leukemia = tested on: RPMI-8226 leukemia
UACC-257 melanoma = tested on: UACC-257 melanoma
OVCAR-8 ovarian = tested on: OVCAR-8 ovarian
COLO 205 colon = tested on: COLO 205 colon
HL-60(TB) leukemia = tested on: HL-60(TB) leukemia
SNB-19 CNS = tested on: SNB-19 CNS
HS 578T breast = tested on: HS 578T breast
SF-295 CNS = tested on: SF-295 CNS
HOP-92 NSCLC = tested on: HOP-92 NSCLC
HT29 colon = tested on: HT29 colon
MDA-MB-231 breast = tested on: MDA-MB-231 breast
SK-MEL-28 melanoma = tested on: SK-MEL-28 melanoma
PC-3 prostate = tested on: PC-3 prostate
UACC-62 melanoma = tested on: UACC-62 melanoma
OVCAR-5 ovarian = tested on: OVCAR-5 ovarian
SF-539 CNS = tested on: SF-539 CNS
MDA-MB-435 = tested on: MDA-MB-435
NCI/ADR-RES ovarian = tested on: NCI/ADR-RES ovarian
NCI-H226 lung = tested on: NCI-H226 lung
HCT-116 colon = tested on: HCT-116 colon
SW-620 colon = tested on: SW-620 colon
SNB-75 CNS = tested on: SNB-75 CNS
NCI-H23 lung = tested on: NCI-H23 lung
T-47D breast = tested on: T-47D breast
SK-OV-3 ovarian = tested on: SK-OV-3 ovarian
RXF 393 renal = tested on: RXF 393 renal

COc1cc(C2C3=C(COC3=O)Oc3cc4c(cc32)OCO4)cc(OC)c1OC(C)=O (configuration not stated)
TGI (NCI-H460 lung): > 100 µM | TGI (MCF7 breast): > 51.6 µM | TGI (SR leukemia): > 100 µM | TGI (OVCAR-3 ovarian): > 100 µM | TGI (LOX IMVI melanoma): > 24.1 µM | TGI (A498 renal): 0.618 µM | TGI (786-0 renal): > 100 µM | TGI (IGROV1 ovarian): 10.9 µM | TGI (DU-145 prostate): > 100 µM | TGI (ACHN renal): > 57.2 µM | TGI (A549 NSCLC): > 100 µM | TGI (M14 melanoma): > 100 µM | TGI (NCI-H522 lung): > 100 µM | TGI (SK-MEL-5 melanoma): 0.0785 µM | TGI (CCRF-CEM leukemia): > 100 µM | TGI (SF-268 CNS): > 100 µM | TGI (KM12 colon): > 100 µM | TGI (UO-31 renal): > 39.4 µM | TGI (BT-549 breast): 5.74 µM | TGI (CAKI-1 renal): > 100 µM | TGI (OVCAR-4 ovarian): > 100 µM | TGI (HCT-15 colon): > 100 µM | TGI (EKVX NSCLC): > 100 µM | TGI (HOP-62 NSCLC): > 100 µM | TGI (SK-MEL-2 melanoma): > 100 µM | TGI (TK-10 renal): > 100 µM | TGI (K-562 leukemia): > 100 µM | TGI (SN12C renal): > 100 µM | TGI (MALME-3M melanoma): > 100 µM | TGI (MOLT-4 leukemia): > 100 µM | TGI (HCC-2998 colon): > 100 µM | TGI (U251 CNS): > 100 µM | TGI (RPMI-8226 leukemia): > 100 µM | TGI (UACC-257 melanoma): > 100 µM | TGI (OVCAR-8 ovarian): > 100 µM | TGI (COLO 205 colon): 0.336 µM | TGI (HL-60(TB) leukemia): 0.615 µM | TGI (SNB-19 CNS): > 100 µM

CCCCCn1sc(=O)n(Cc2ccc(CNC(=O)OCc3ccc4cccc(O)c4n3)cc2)c1=O
GI50 (NCI-H460 lung): 1.8 µM | TGI (NCI-H460 lung): 3.78 µM | GI50 (MCF7 breast): 1.34 µM | TGI (MCF7 breast): 3.7 µM | GI50 (HS 578T breast): 2.17 µM | TGI (HS 578T breast): 6.73 µM | GI50 (OVCAR-3 ovarian): 1.26 µM | TGI (OVCAR-3 ovarian): 2.67 µM | GI50 (SF-295 CNS): 6.73 µM | TGI (SF-295 CNS): 20.1 µM | GI50 (LOX IMVI melanoma): 1.09 µM | TGI (LOX IMVI melanoma): 2.33 µM | GI50 (HOP-92 NSCLC): 1.21 µM | TGI (HOP-92 NSCLC): 2.97 µM | GI50 (A498 renal): 1.73 µM | TGI (A498 renal): 4.58 µM | GI50 (786-0 renal): 1.17 µM | TGI (786-0 renal): 2.89 µM | GI50 (IGROV1 ovarian): 1.17 µM | TGI (IGROV1 ovarian): 2.65 µM | GI50 (DU-145 prostate): 1.6 µM | TGI (DU-145 prostate): 3.09 µM | GI50 (ACHN renal): 1.23 µM | TGI (ACHN renal): 2.47 µM | GI50 (A549 NSCLC): 2.12 µM | TGI (A549 NSCLC): 5.57 µM | GI50 (M14 melanoma): 1.33 µM | TGI (M14 melanoma): 3.12 µM | GI50 (HT29 colon): 1.89 µM | TGI (HT29 colon): 3.35 µM | GI50 (MDA-MB-231 breast): 1.32 µM | TGI (MDA-MB-231 breast): 2.63 µM | GI50 (SK-MEL-28 melanoma): 1.6 µM | TGI (SK-MEL-28 melanoma): 2.94 µM | GI50 (NCI-H522 lung): 1.07 µM | TGI (NCI-H522 lung): 2.74 µM | GI50 (SK-MEL-5 melanoma): 1.69 µM | TGI (SK-MEL-5 melanoma): 3.07 µM | GI50 (PC-3 prostate): 1.22 µM | TGI (PC-3 prostate): 2.76 µM | GI50 (UACC-62 melanoma): 1.51 µM | TGI (UACC-62 melanoma): 2.87 µM | GI50 (CCRF-CEM leukemia): 0.489 µM | TGI (CCRF-CEM leukemia): > 100 µM | GI50 (SF-268 CNS): 1.82 µM | TGI (SF-268 CNS): 4.14 µM | GI50 (OVCAR-5 ovarian): 1.68 µM | TGI (OVCAR-5 ovarian): 3.09 µM | GI50 (SF-539 CNS): 1.48 µM | TGI (SF-539 CNS): 2.8 µM | GI50 (MDA-MB-435): 1.17 µM | TGI (MDA-MB-435): 2.5 µM | GI50 (NCI/ADR-RES ovarian): 1.54 µM | TGI (NCI/ADR-RES ovarian): 4.41 µM | GI50 (KM12 colon): 2.78 µM | TGI (KM12 colon): 8.91 µM | GI50 (NCI-H226 lung): 1.47 µM | TGI (NCI-H226 lung): 3.31 µM | GI50 (HCT-116 colon): 0.419 µM | TGI (HCT-116 colon): 2.69 µM | GI50 (UO-31 renal): 1.07 µM | TGI (UO-31 renal): 2.25 µM | GI50 (SW-620 colon): 1.25 µM | TGI (SW-620 colon): 2.83 µM | GI50 (SNB-75 CNS): 1.14 µM | TGI (SNB-75 CNS): 4.52 µM | GI50 (BT-549 breast): 1.44 µM | TGI (BT-549 breast): 3.65 µM | GI50 (CAKI-1 renal): 0.935 µM | TGI (CAKI-1 renal): 2.17 µM | GI50 (OVCAR-4 ovarian): 1.67 µM | TGI (OVCAR-4 ovarian): 3.21 µM | GI50 (HCT-15 colon): 1.44 µM | TGI (HCT-15 colon): 4.81 µM | GI50 (NCI-H23 lung): 1.67 µM | TGI (NCI-H23 lung): 3.59 µM | GI50 (EKVX NSCLC): 2.01 µM | TGI (EKVX NSCLC): 5.41 µM | GI50 (T-47D breast): 1.79 µM | TGI (T-47D breast): 4.52 µM | GI50 (HOP-62 NSCLC): 2.73 µM | TGI (HOP-62 NSCLC): 14.9 µM | GI50 (SK-MEL-2 melanoma): 1.72 µM | TGI (SK-MEL-2 melanoma): 3.47 µM | GI50 (TK-10 renal): 1.19 µM | TGI (TK-10 renal): 3.05 µM | GI50 (K-562 leukemia): 0.846 µM | TGI (K-562 leukemia): 15.7 µM | GI50 (SN12C renal): 1.49 µM | TGI (SN12C renal): 2.82 µM | GI50 (SK-OV-3 ovarian): 4.58 µM | TGI (SK-OV-3 ovarian): 18.4 µM | GI50 (MALME-3M melanoma): 1.56 µM | TGI (MALME-3M melanoma): 3 µM | GI50 (RXF 393 renal): 1.37 µM | TGI (RXF 393 renal): 2.67 µM | GI50 (MOLT-4 leukemia): 3.02 µM | TGI (MOLT-4 leukemia): 45.2 µM | GI50 (HCC-2998 colon): 2.09 µM | TGI (HCC-2998 colon): 4.52 µM | GI50 (U251 CNS): 1.77 µM | TGI (U251 CNS): 3.45 µM | GI50 (RPMI-8226 leukemia): 1.56 µM | TGI (RPMI-8226 leukemia): 11.2 µM | GI50 (UACC-257 melanoma): 1.57 µM | TGI (UACC-257 melanoma): 3.08 µM | GI50 (OVCAR-8 ovarian): 1.85 µM | TGI (OVCAR-8 ovarian): 9.89 µM | GI50 (COLO 205 colon): 1.59 µM | TGI (COLO 205 colon): 3.75 µM | GI50 (HL-60(TB) leukemia): 2.88 µM | TGI (HL-60(TB) leukemia): > 100 µM | GI50 (SNB-19 CNS): 4.44 µM | TGI (SNB-19 CNS): 16.7 µM
